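Values below derive from 48-hour exposures of cells grown in 96-well plates, with endpoints linearly interpolated between the two concentrations bracketing the appropriate inhibition level. At the GI50, growth is halved.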 Activity calls are given as the source filed them. Rule as the data show it: active = GI50 up to about 1.1 µM and inactive = higher.
Assays:
Assay in all cases: growth of human tumour cells (NCI), 48 h
MDA-MB-435 = tested on: MDA-MB-435
OVCAR-3 = tested on: OVCAR-3
LOX IMVI = tested on: LOX IMVI
MDA-MB-231 = tested on: MDA-MB-231
MOLT-4 = tested on: MOLT-4
COLO 205 = tested on: COLO 205
BT-549 = tested on: BT-549
SK-OV-3 = tested on: SK-OV-3
UO-31 = tested on: UO-31
HL-60 = tested on: HL-60
K562 = tested on: K562
RXF 393 = tested on: RXF 393
NCI-H226 = tested on: NCI-H226
HCC 2998 = tested on: HCC 2998
MCF7 = tested on: MCF7
OVCAR-4 = tested on: OVCAR-4
MDA-N = tested on: MDA-N
M14 = tested on: M14
Hs-578T = tested on: Hs-578T
T47D = tested on: T47D

SMILES | GI50 (MDA-MB-435) | GI50 (OVCAR-3) | GI50 (LOX IMVI) | GI50 (MDA-MB-231) | GI50 (MOLT-4) | GI50 (COLO 205) | GI50 (BT-549) | GI50 (SK-OV-3) | GI50 (UO-31) | GI50 (HL-60) | GI50 (K562) | GI50 (RXF 393) | GI50 (NCI-H226) | GI50 (HCC 2998) | GI50 (MCF7) | GI50 (OVCAR-4) | GI50 (MDA-N) | GI50 (M14) | GI50 (Hs-578T) | GI50 (T47D)
CCCCS/C(=C(/C#N)C(N)=O)c1cc2c([nH]1)CCCC2 | 3.36 µM (inactive) | 15.7 µM (inactive) | 8.93 µM (inactive) | 13.1 µM (inactive) | 10 µM (inactive) | 14 µM (inactive) | 11.1 µM (inactive) | 22.9 µM (inactive) | 13.1 µM (inactive) | 3.67 µM (inactive) | 3.68 µM (inactive) | 14.9 µM (inactive) | 15.1 µM (inactive) | 11.4 µM (inactive) | 10.3 µM (inactive) | 16.1 µM (inactive) | 4.19 µM (inactive) | – | – | –
COc1ccc(OC)c([N+](=O)[O-])c1-c1nc2sc(Cl)cn2c1/C=N/N=C(N)N | 17.5 µM (inactive) | 16 µM (inactive) | 25 µM (inactive) | 15.1 µM (inactive) | 4.9 µM (inactive) | 15.3 µM (inactive) | 16.8 µM (inactive) | – | 16.7 µM (inactive) | 11.2 µM (inactive) | 7.53 µM (inactive) | 20.1 µM (inactive) | 18.2 µM (inactive) | 12.7 µM (inactive) | 9.89 µM (inactive) | 12.2 µM (inactive) | – | 34.4 µM (inactive) | 19.1 µM (inactive) | 17.8 µM (inactive)
NS(=O)(=O)c1nnc(NS(=O)(=O)c2ccc([N+](=O)[O-])cc2)s1 | > 100 µM (inactive) | > 100 µM (inactive) | 30.4 µM (inactive) | > 100 µM (inactive) | 26.3 µM (inactive) | > 100 µM (inactive) | > 100 µM (inactive) | > 100 µM (inactive) | > 100 µM (inactive) | > 100 µM (inactive) | 33.6 µM (inactive) | > 100 µM (inactive) | > 100 µM (inactive) | > 100 µM (inactive) | > 100 µM (inactive) | > 100 µM (inactive) | – | > 100 µM (inactive) | – | 34.9 µM (inactive)
COc1ccc(/C=C2\N=C(SC)N(CN3CCCCC3)C2=O)cc1 | > 100 µM (inactive) | > 100 µM (inactive) | > 100 µM (inactive) | > 100 µM (inactive) | > 100 µM (inactive) | > 100 µM (inactive) | – | > 100 µM (inactive) | > 100 µM (inactive) | – | > 100 µM (inactive) | – | > 100 µM (inactive) | – | > 100 µM (inactive) | > 100 µM (inactive) | > 100 µM (inactive) | > 100 µM (inactive) | > 100 µM (inactive) | –
COc1cc2c[n+](C)c3c4cc(OC)c(OCc5ccccc5)cc4c(OCc4ccccc4)cc3c2cc1OC | 1.74 µM (inactive) | 2.51 µM (inactive) | 5.3 µM (inactive) | 5.02 µM (inactive) | 2.54 µM (inactive) | 0.429 µM (active) | 2.21 µM (inactive) | 5.68 µM (inactive) | > 100 µM (inactive) | – | 1.28 µM (inactive) | 12.1 µM (inactive) | 2.26 µM (inactive) | 11.7 µM (inactive) | 3.93 µM (inactive) | 4.11 µM (inactive) | 1.23 µM (inactive) | 9.66 µM (inactive) | – | 5.22 µM (inactive)
CC1(C)C(=O)C(C)(C)C1=NN | – | > 100 µM (inactive) | > 100 µM (inactive) | – | > 100 µM (inactive) | > 100 µM (inactive) | – | > 100 µM (inactive) | > 100 µM (inactive) | > 100 µM (inactive) | > 100 µM (inactive) | > 100 µM (inactive) | > 100 µM (inactive) | > 100 µM (inactive) | – | > 100 µM (inactive) | – | > 100 µM (inactive) | – | –
CC(=O)C1Cn2c(=O)c3cc4ccccc4cc3c(=O)n2C=C1C (stereo not drawn) | – | > 100 µM (inactive) | > 100 µM (inactive) | – | > 100 µM (inactive) | > 100 µM (inactive) | – | > 100 µM (inactive) | > 100 µM (inactive) | > 100 µM (inactive) | > 100 µM (inactive) | > 100 µM (inactive) | > 100 µM (inactive) | > 100 µM (inactive) | – | > 100 µM (inactive) | – | > 100 µM (inactive) | – | –
Cc1ccc(S(=O)(=O)Nc2cccc3c(=O)nc[nH]c23)cc1 | – | > 100 µM (inactive) | 96.6 µM (inactive) | – | 34.3 µM (inactive) | > 100 µM (inactive) | – | > 100 µM (inactive) | > 68.1 µM (inactive) | 23.3 µM (inactive) | 43.6 µM (inactive) | > 65.3 µM (inactive) | > 94.6 µM (inactive) | > 82 µM (inactive) | – | > 100 µM (inactive) | – | > 100 µM (inactive) | – | –
CCOP1(=O)C=CC(Cl)=C(C)C1 (stereo not drawn) | – | 19.9 µM (inactive) | 19.2 µM (inactive) | – | 3.64 µM (inactive) | 19.1 µM (inactive) | – | 48 µM (inactive) | 25.6 µM (inactive) | 3.57 µM (inactive) | 5.06 µM (inactive) | 4.27 µM (inactive) | > 100 µM (inactive) | 15.9 µM (inactive) | – | 16.4 µM (inactive) | – | 14.7 µM (inactive) | – | –
COc1cc(S(=O)(=O)Nc2ccc(-c3csc(N4C(=O)C(C)SC4c4cccs4)n3)cc2)ccc1Cl (stereo not drawn) | 30 µM (inactive) | 58.5 µM (inactive) | 5.27 µM (inactive) | – | 16 µM (inactive) | 24.9 µM (inactive) | 34 µM (inactive) | 0.481 µM (active) | 46.3 µM (inactive) | 18.7 µM (inactive) | 28.4 µM (inactive) | 11.1 µM (inactive) | 6.28 µM (inactive) | – | > 100 µM (inactive) | – | – | 30.8 µM (inactive) | 6.17 µM (inactive) | 10.8 µM (inactive)
CC(=O)Nc1ccc(/N=C2\C(c3ccccc3)=C(SC3=C(c4ccccc4)/C(=N\c4ccc(NC(C)=O)cc4)c4ccccc43)c3ccccc32)cc1 | 26.5 µM (inactive) | 27.4 µM (inactive) | 28.8 µM (inactive) | 50.8 µM (inactive) | 21.6 µM (inactive) | 32 µM (inactive) | 24.8 µM (inactive) | 35.8 µM (inactive) | 24.7 µM (inactive) | – | 32.6 µM (inactive) | 21.6 µM (inactive) | 53.6 µM (inactive) | 26.7 µM (inactive) | 27.4 µM (inactive) | 29.6 µM (inactive) | 32.8 µM (inactive) | 27 µM (inactive) | – | 12.9 µM (inactive)
Cc1ccc(NC(=O)CC/C(CC(=O)c2ccc(Cl)cc2)=N\NC(=O)C(=O)NN)cc1C | – | > 100 µM (inactive) | > 100 µM (inactive) | – | > 100 µM (inactive) | > 100 µM (inactive) | – | > 100 µM (inactive) | > 100 µM (inactive) | > 100 µM (inactive) | > 100 µM (inactive) | > 100 µM (inactive) | > 100 µM (inactive) | > 100 µM (inactive) | – | > 100 µM (inactive) | – | > 100 µM (inactive) | – | –
CC(C)(C)[Si](C)(C)OCC1CCC(n2cnc3c(=O)[nH]cnc32)O1 (stereo not drawn) | > 100 µM (inactive) | > 100 µM (inactive) | > 100 µM (inactive) | > 100 µM (inactive) | 30.2 µM (inactive) | > 100 µM (inactive) | – | > 100 µM (inactive) | > 100 µM (inactive) | 74.8 µM (inactive) | 85.7 µM (inactive) | > 100 µM (inactive) | 77.6 µM (inactive) | > 100 µM (inactive) | > 100 µM (inactive) | > 100 µM (inactive) | > 100 µM (inactive) | > 100 µM (inactive) | 58.2 µM (inactive) | 82.8 µM (inactive)
Cc1ccccc1NC(=N)Nc1ccccc1C | > 100 µM (inactive) | > 100 µM (inactive) | > 100 µM (inactive) | > 100 µM (inactive) | > 100 µM (inactive) | > 100 µM (inactive) | – | > 100 µM (inactive) | – | > 100 µM (inactive) | > 100 µM (inactive) | > 100 µM (inactive) | > 100 µM (inactive) | 21.9 µM (inactive) | > 100 µM (inactive) | > 100 µM (inactive) | > 100 µM (inactive) | 66.8 µM (inactive) | > 100 µM (inactive) | > 100 µM (inactive)
COc1ccc(CNc2cc(OC)cc(OC)c2)cc1 | – | 50.8 µM (inactive) | 56.8 µM (inactive) | – | > 42.9 µM (inactive) | > 100 µM (inactive) | – | > 66.7 µM (inactive) | 29.7 µM (inactive) | > 39.2 µM (inactive) | 29.8 µM (inactive) | 43.8 µM (inactive) | 61.1 µM (inactive) | > 87.1 µM (inactive) | – | 68.9 µM (inactive) | – | > 100 µM (inactive) | – | –
CCOc1ccc(NCc2cc(OC)c(OC)c(OC)c2)cc1 | – | 0.339 µM (active) | 0.643 µM (active) | 2.5 µM (inactive) | 0.582 µM (active) | 0.384 µM (active) | 0.12 µM (active) | 0.706 µM (active) | 4.8 µM (inactive) | 0.257 µM (active) | 0.215 µM (active) | – | 10.3 µM (inactive) | 0.771 µM (active) | 0.435 µM (active) | 41.6 µM (inactive) | – | 0.371 µM (active) | 1.38 µM (inactive) | –
O=C(NC1CCN(Cc2ccccc2)CC1)c1cccc(I)c1 | 17.3 µM (inactive) | 40 µM (inactive) | 19.6 µM (inactive) | 17 µM (inactive) | 13.9 µM (inactive) | 17.6 µM (inactive) | 42.5 µM (inactive) | 22.2 µM (inactive) | 17 µM (inactive) | 34.4 µM (inactive) | 22.6 µM (inactive) | 51.8 µM (inactive) | 31.6 µM (inactive) | – | – | 58.2 µM (inactive) | – | 17.2 µM (inactive) | 29 µM (inactive) | 24.1 µM (inactive)

— ChEMBL document CHEMBL1201862, “PubChem BioAssay data set” (2004)
